Source: US10501497B2, “Cyclic polypeptides, method for obtaining them and the therapeutic use thereof” (AXOLTIS PHARMA, priority 2015, dated 2019)
Values after ≈ are worked out from the molar mass of the structure shown. Read-outs that look alike come from different tables or passages of the source. Bridge positions count the residues as written; N and C are the ends. Peptide text beside a SMILES is read from it.

How the values were obtained:
neprylysine = neprylysine (Homo sapiens, UniProt P08473); assay: Enzymatic digestion with neprylysine analysed by LC/MS/MS; type: in vitro ADME; conditions: for Percentage of digestion / metabolised at 0.5 h: neprylysine; for Area under the curve in the presence of enzyme: neprylysine diluted by a tenth in water; for Area under the control curve (no enzyme): LC/MS/MS; for metabolised at 0.5 h: read-out: Percentage of digestion
Chain of neprylysine (P08473 whole entry): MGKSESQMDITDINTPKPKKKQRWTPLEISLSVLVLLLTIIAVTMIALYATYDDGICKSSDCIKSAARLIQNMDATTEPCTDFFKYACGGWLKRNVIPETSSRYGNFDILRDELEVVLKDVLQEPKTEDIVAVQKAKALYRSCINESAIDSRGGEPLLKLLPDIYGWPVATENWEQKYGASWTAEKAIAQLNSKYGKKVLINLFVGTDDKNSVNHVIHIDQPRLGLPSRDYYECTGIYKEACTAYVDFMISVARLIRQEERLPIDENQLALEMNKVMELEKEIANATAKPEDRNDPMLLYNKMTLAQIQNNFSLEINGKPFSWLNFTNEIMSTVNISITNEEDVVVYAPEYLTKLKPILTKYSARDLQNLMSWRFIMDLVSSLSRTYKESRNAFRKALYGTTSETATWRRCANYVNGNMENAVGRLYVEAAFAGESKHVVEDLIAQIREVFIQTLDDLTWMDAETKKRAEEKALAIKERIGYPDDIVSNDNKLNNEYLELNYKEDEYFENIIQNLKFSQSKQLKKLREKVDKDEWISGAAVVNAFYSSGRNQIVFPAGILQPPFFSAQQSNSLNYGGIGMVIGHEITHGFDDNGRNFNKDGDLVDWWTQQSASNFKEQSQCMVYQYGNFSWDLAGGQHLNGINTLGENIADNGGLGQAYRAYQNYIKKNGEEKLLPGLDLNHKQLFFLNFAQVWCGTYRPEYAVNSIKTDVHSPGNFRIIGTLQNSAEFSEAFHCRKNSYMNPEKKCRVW
Protocol: A so-called “control” sample without enzyme and effected in parallel was performed to establish an analytical reference for each parameter explored. The polypeptides are diluted in deoxygenated water to maintain the stability of both forms over time. Digestions were analyzed by the LC/MS/MS mass spectrometry technique. The percentage of digestion corresponds, for a given polypeptide, to the percentage of the area under the curve in the presence of enzyme relative to the area under the control curve for the same polypeptide.

physchem [1] = conditions: aqueous 0.9% NaCl solution
Protocol: Two weighings of 0.5 mg are made in a 1.5 ml micro tube for the polypeptide
The tubes are then vortexed for a few seconds and one drop of each polypeptide solution so obtained is placed on a glass slide for observation under an optical microscope.

physchem [2] = type: physicochemical
Protocol: In the case of the polypeptide of amino acid sequence: […] Solubility is particularly important for IT injections because there is a limitation of the injection volume, a limit which is much greater than that for peripheral injections, and a limitation in the solvents and solutions that may be used, for example. The use of a 5% glucose solution improves the solubility of the polypeptide of amino acid sequence: […] [SEQ ID NO: 58] by bringing it to around 10 mg/ml, wherein this solution remains an isotonic solution that is compatible with an IT injection.

solubility (physchem [1])	metabolised at 0.5 h (neprylysine; isolated neprylysine enzyme, T = 30 min)	solubility (physchem [2]; solubility in 5% glucose solution)	solubility (physchem [2]; solubility in the physiological liquid)	Structure (SMILES)	Percentage of digestion (neprylysine; T = 0 min)	Area under the curve in the presence of enzyme (neprylysine; T = 0 min)	Area under the control curve (no enzyme) (neprylysine; T = 0 min)	Percentage of digestion (neprylysine; T = 30 min)	Area under the curve in the presence of enzyme (neprylysine; T = 30 min)	Area under the control curve (no enzyme) (neprylysine; T = 30 min)	metabolised at 0.5 h (neprylysine; isolated enzyme neprilysin, T = 30 min)
–	–	–	–	N=C(N)NCCC[C@@H]1NC(=O)[C@H](CO)NC(=O)[C@@H](NC(=O)[C@H](CO)NC(=O)[C@H](CO)NC(=O)[C@H](Cc2c[nH]c3ccccc23)NC(=O)CNC(=O)[C@H](CO)NC(=O)[C@@H](N)Cc2c[nH]c3ccccc23)CSSC[C@@H](C(=O)NCC(=O)O)NC(=O)[C@H](CO)NC1=O [SEQ ID NO: 2, W-S-G-W-S-S-C-S-R-S-C-G] (H-WSGWSSCSRSCG-OH; disulfide 7-11)	none	3220000	3008000	8.5%	3401000	3722000	8.5%
~2000 µg/mL (≈ 1540 µM)	28%	~10000 µg/mL (≈ 7680 µM)	1000 to 2000 µg/mL (≈ 768 to 1540 µM)	N=C(N)NCCC[C@H](NC(=O)[C@H](CO)NC(=O)[C@H](CS)NC(=O)[C@H](CO)NC(=O)[C@H](CO)NC(=O)[C@H](Cc1c[nH]c2ccccc12)NC(=O)CNC(=O)[C@H](CO)NC(=O)[C@@H](N)Cc1c[nH]c2ccccc12)C(=O)N[C@@H](CO)C(=O)N[C@@H](CS)C(=O)NCC(=O)O [SEQ ID NO: 58, W-S-G-W-S-S-C-S-R-S-C-G] (H-WSGWSSCSRSCG-OH; N-terminus and C-terminus assumed)	none	797200	788400	28%	576500	802800	–
